According to patent publication US20210139484A1, “DIHYDROISOQUINOLINE-2(1H)-CARBOXAMIDE AND RELATED COMPOUNDS AND THEIR USE IN TREATING MEDICAL CONDITIONS” (GOSSAMER BIO SERVICES, INC., priority 2018, published 2021):

These molecules were tested against T1, human HPK1 protein (Homo sapiens, UniProt Q92918) (assay: Human HPK1 protein TR-FRET assay). Settings: 1 mM ATP, Table 19.
T1 construct: recombinant human HPK1 protein (a.a. 1-346) was expressed in Sf9 insect cells; GST (N); purchased Signalchem M23-11G; host or cells: Sf9 insect cells (baculovirus)
T1 sequence (Q92918 1-346): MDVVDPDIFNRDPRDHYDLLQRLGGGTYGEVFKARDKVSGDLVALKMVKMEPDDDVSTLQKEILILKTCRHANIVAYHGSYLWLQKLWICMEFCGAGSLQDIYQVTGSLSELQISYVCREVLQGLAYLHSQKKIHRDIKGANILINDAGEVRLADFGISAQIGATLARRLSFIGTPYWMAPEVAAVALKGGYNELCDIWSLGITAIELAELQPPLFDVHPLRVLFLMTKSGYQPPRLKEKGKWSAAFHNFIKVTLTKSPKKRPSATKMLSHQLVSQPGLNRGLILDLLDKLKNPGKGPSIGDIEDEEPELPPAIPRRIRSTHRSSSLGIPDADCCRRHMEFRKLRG
Type: biochemical
Summary of the method: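 GST-tagged HPK1 (a.a. 1-346, Sf9-expressed) at 10 nM phosphorylated 100 nM ULight CREBtide with 1 mM ATP in Tris pH 7.5, MgCl2, NP-40, DTT, 1% DMSO, 60 minutes at room temperature. Phospho-Ser133 detected by Eu-antibody TR-FRET (665/615 nm ratio); IC50 from 4-parameter fit against DMSO control.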

Row | IC50 [µM] | Compound
1 | < 0.5 | CCN1CCN(Cc2ccc(NC(=O)N3CCc4ccc(Oc5ccnn6cccc56)cc4[C@@H]3C)cc2C(F)(F)F)CC1 [V-6]
2 | < 0.5 | CCN1CCN(Cc2ccc(NC(=O)N3Cc4cc(Oc5ccnc6[nH]c(C)cc56)c(F)cc4C(C)C3)cc2C(F)(F)F)CC1 (centres unmarked) [IV-29]
3 | < 0.5 | CCN1CCN(Cc2ccc(NC(=O)N3CCc4ccc(Oc5ncnc6[nH]c(C)cc56)cc4[C@@H]3C)cc2C(F)(F)F)CC1 [V-28]
4 | < 0.5 | CCN1CCN(Cc2ccc(NC(=O)N3Cc4cc(Oc5ccnc6[nH]ncc56)cnc4C(C)C3)cc2C(F)(F)F)CC1 (centres unmarked) [VII-16]
5 | < 0.5 | CCN1CCN(Cc2ccc(NC(=O)N3CCc4cc(F)c(Oc5ccnc6[nH]c(C)cc56)cc4C3C)cc2C(F)(F)F)CC1 (single isomer, unassigned) [IV-25]
6 | < 0.5 | CCN1CCN(Cc2ccc(NC(=O)N3CCc4ccc(Oc5ncnc6[nH]ccc56)cc4C3)cc2C(F)(F)F)CC1 [II-3]
7 | 0.5 to 5 | Cc1cc2c(Oc3ccc4c(c3)[C@H](C)N(C(=O)Nc3cnc(OCCCN(C)C)c(C(F)(F)F)c3)CC4)ccnc2[nH]1 [VI-16]
8 | < 0.5 | Cc1cc2c(Oc3ccc4c(c3)[C@H](C)N(C(=O)Nc3cnc(OC5CCN(C)CC5)c(C(F)(F)F)c3)CC4)ccnc2[nH]1 [VI-2]
9 | < 0.5 | CCN1CCN(Cc2ccc(NC(=O)N3CCc4ccc(Oc5ccnn6cccc56)cc4C3)cc2C(F)(F)F)CC1 [II-19]
10 | < 0.5 | Cc1cc2c(Oc3cnc4c(c3)CN(C(=O)Nc3cnc(OC5CCN(C)CC5)c(C(F)(F)F)c3)CC4C)ccnc2[nH]1 (single isomer, unassigned) [VII-8]

Same assay, conditions: 1 mM ATP, Table 20

Row | IC50 [µM] | Compound
11 | < 0.5 | CC[C@H]1CN(C(=O)Nc2ccc(CN3CCN(C)CC3)c(C(F)(F)F)c2)Cc2cc(Oc3ccnc4[nH]c(-c5cn[nH]c5)cc34)cnc21 [XIV-149]
12 | < 0.5 | CCN1CCN(Cc2ccc(NC(=O)N3Cc4cc(Oc5ccnc6[nH]c(CO)cc56)cnc4[C@H](C)C3)cc2C(F)(F)F)CC1 [XIV-14]
13 | < 0.5 | C[C@H]1CN(C(=O)Nc2ccc(CN3CCN(CCO)CC3)c(C(F)(F)F)c2)Cc2cc(Oc3ccnc4[nH]c(C#N)cc34)ccc21 [XV-36]
14 | > 10 | CCN1CCN(Cc2ccc(NC(=O)N3Cc4cc(Oc5ccnc6[nH]nnc56)cnc4C(C)C3)cc2C(F)(F)F)CC1 (single isomer, unassigned) [XIV-17]
15 | < 0.5 | CN1CCN(Cc2cc(F)c(NC(=O)N3CCc4ccc(Oc5c(F)cnc6[nH]c(-c7cnn(C)c7)cc56)cc4C3)cc2C(F)(F)F)CC1 [XII-16]
16 | < 0.5 | CC[C@@H]1CN(C(=O)Nc2ccc(CN3CCN(CCO)CC3)c(C(F)F)c2)Cc2cc(Oc3ccnc4[nH]c(C#N)cc34)ccc21 [XV-20]
17 | < 0.5 | CN1CCN(Cc2ccc(NC(=O)N3CCc4ccc(Nc5c(F)cnc6[nH]c(-c7cnn(C)c7)cc56)cc4C3)cc2C(F)(F)F)CC1 [compound 22, 7-[[5-Fluoro-2-(1-methylpyrazol-4-yl)-1H-pyrrolo[2,3-b]pyridin-4-yl]amino]-N-[4-[(4-methylpiperazin-1-yl)methyl]-3-(trifluoromethyl)phenyl]-3,4-dihydro-1H-isoquinoline-2-carboxamide]
18 | < 0.5 | C[C@H]1c2cc(Oc3ccnc4[nH]c(CO)cc34)ccc2CCN1C(=O)Nc1ccc(CN2CCN(C)CC2)c(C(F)F)c1 [XIII-9]
19 | < 0.5 | CC[C@@H]1CN(C(=O)Nc2cnc(CN3CCN(CC)CC3)c(C(F)(F)F)c2)Cc2cc(Oc3ccnc4[nH]ccc34)cnc21 [XIV-9]
20 | < 0.5 | C[C@H]1c2cc(Oc3ccnc4[nH]c(C5(O)COC5)cc34)ccc2CCN1C(=O)Nc1ccc(CN2CCN(CCO)CC2)c(C(F)F)c1 [XIII-11]
21 | < 0.5 | CC[C@H]1CN(C(=O)Nc2ccc(CN3CCNCC3)c(C(F)(F)F)c2)Cc2cc(Oc3ccnc4[nH]c(C#N)cc34)ccc21 [XV-17]
22 | < 0.5 | C[C@@H]1Cc2ccc(Oc3c(F)cnc4[nH]c(C5(O)CC5)cc34)cc2CN1C(=O)Nc1ccc(CN2CCN(C)CC2)c(C(F)(F)F)c1 [XVI-9]
23 | < 0.5 | O=C(Nc1ccc(CN2CCNCC2)c(C(F)(F)F)c1)N1CCc2ccc(Oc3ccnc4[nH]c(C5(O)CC5)cc34)cc2C1 [XVIII-9]
